Molecules are shown by their SMILES.
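Further: spheroids exposed to drugs for seven days before readout.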

The first assay relates to 843126-344-R-J1-PDC complex spheroid viability. Put plainly: Anticancer human tumor 843126-344-R-J1-PDC patient-derived melanoma cell line growth inhibition [POLQ]. The conditions noted are these: second compound 0.316 µM; first compound 0.316 µM; active compounds read low. The procedure, abridged: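 Complex spheroid viability model combining PDC tumour cells with endothelial (HUVEC) and MSC stromal cells. Novobiocin, ART-558 or RP6685 were tested singly and in combination with standard and investigational anticancer drugs. Each was titrated in half-log steps from near clinical Cmax, or from 10 microM where Cmax was unknown.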
Consider `C=CCn1c(=O)c2cnc(Nc3ccc(N4CCN(C)CC4)cc3)nc2n1-c1cccc(C(C)(C)O)n1` + Cc1cccc(N(C)C(=O)C2C(O)CCN2c2nc(C)cc(C(F)(F)F)c2C#N)c1, for which the viability, T/C was 89.3%.

With `CCc1c2c(nc3ccc(O)cc13)-c1cc3c(c(=O)n1C2)COC(=O)[C@]3(O)CC` + Cc1cccc(N(C)C(=O)C2C(O)CCN2c2nc(C)cc(C(F)(F)F)c2C#N)c1, the viability, T/C is 53.6%.

`O=C(c1cc(Cc2n[nH]c(=O)c3ccccc23)ccc1F)N1CCN(C(=O)C2CC2)CC1` + Cc1cccc(N(C)C(=O)C2C(O)CCN2c2nc(C)cc(C(F)(F)F)c2C#N)c1: the viability, T/C is 89.4%.

Regarding `O=c1[nH]cc(F)c(=O)[nH]1` + Cc1cccc(N(C)C(=O)C2C(O)CCN2c2nc(C)cc(C(F)(F)F)c2C#N)c1, the viability, T/C is 96.7%.

Still in this assay, the particulars now being: second compound 0.316 µM; first compound 1 µM; active compounds read low.
`C=CCn1c(=O)c2cnc(Nc3ccc(N4CCN(C)CC4)cc3)nc2n1-c1cccc(C(C)(C)O)n1` + Cc1cccc(N(C)C(=O)C2C(O)CCN2c2nc(C)cc(C(F)(F)F)c2C#N)c1: the viability, T/C is 73.7%.

Turning to `CCc1c2c(nc3ccc(O)cc13)-c1cc3c(c(=O)n1C2)COC(=O)[C@]3(O)CC` + Cc1cccc(N(C)C(=O)C2C(O)CCN2c2nc(C)cc(C(F)(F)F)c2C#N)c1, the viability, T/C is 43.6%.

Consider `O=C(c1cc(Cc2n[nH]c(=O)c3ccccc23)ccc1F)N1CCN(C(=O)C2CC2)CC1` + Cc1cccc(N(C)C(=O)C2C(O)CCN2c2nc(C)cc(C(F)(F)F)c2C#N)c1, for which the viability, T/C is 91.5%.

Regarding `O=c1[nH]cc(F)c(=O)[nH]1` + Cc1cccc(N(C)C(=O)C2C(O)CCN2c2nc(C)cc(C(F)(F)F)c2C#N)c1, the viability, T/C was 82.2%.

The same assay, now with this note: second compound 0.316 µM; first compound 3.16 µM; active compounds read low.
For the compound `O=C(c1cc(Cc2n[nH]c(=O)c3ccccc23)ccc1F)N1CCN(C(=O)C2CC2)CC1` + Cc1cccc(N(C)C(=O)C2C(O)CCN2c2nc(C)cc(C(F)(F)F)c2C#N)c1, the viability, T/C is 82%.

Take `O=c1[nH]cc(F)c(=O)[nH]1` + Cc1cccc(N(C)C(=O)C2C(O)CCN2c2nc(C)cc(C(F)(F)F)c2C#N)c1: the viability, T/C is 110%.

Staying with this assay, now noted: second compound 0.316 µM; first compound 10 µM; active compounds read low.
As for `O=C(c1cc(Cc2n[nH]c(=O)c3ccccc23)ccc1F)N1CCN(C(=O)C2CC2)CC1` + Cc1cccc(N(C)C(=O)C2C(O)CCN2c2nc(C)cc(C(F)(F)F)c2C#N)c1, the viability, T/C was 75.7%.

Regarding `O=c1[nH]cc(F)c(=O)[nH]1` + Cc1cccc(N(C)C(=O)C2C(O)CCN2c2nc(C)cc(C(F)(F)F)c2C#N)c1, the viability, T/C is 103%.

The same assay, now with this note: second compound 1 µM; first compound 0.00316 µM; active compounds read low.
As to `C=CCn1c(=O)c2cnc(Nc3ccc(N4CCN(C)CC4)cc3)nc2n1-c1cccc(C(C)(C)O)n1` + Cc1cccc(N(C)C(=O)C2C(O)CCN2c2nc(C)cc(C(F)(F)F)c2C#N)c1, the viability, T/C was 86%.

On to `CCc1c2c(nc3ccc(O)cc13)-c1cc3c(c(=O)n1C2)COC(=O)[C@]3(O)CC` + Cc1cccc(N(C)C(=O)C2C(O)CCN2c2nc(C)cc(C(F)(F)F)c2C#N)c1, for which the viability, T/C was 66.6%.

Staying with this assay, now noted: second compound 1 µM; first compound 0.01 µM; active compounds read low.
For `C=CCn1c(=O)c2cnc(Nc3ccc(N4CCN(C)CC4)cc3)nc2n1-c1cccc(C(C)(C)O)n1` + Cc1cccc(N(C)C(=O)C2C(O)CCN2c2nc(C)cc(C(F)(F)F)c2C#N)c1, the viability, T/C is 102%.

As for `CCc1c2c(nc3ccc(O)cc13)-c1cc3c(c(=O)n1C2)COC(=O)[C@]3(O)CC` + Cc1cccc(N(C)C(=O)C2C(O)CCN2c2nc(C)cc(C(F)(F)F)c2C#N)c1, the viability, T/C is 58.5%.

Staying with this assay, now noted: second compound 1 µM; first compound 0.0316 µM; active compounds read low.
Regarding `C=CCn1c(=O)c2cnc(Nc3ccc(N4CCN(C)CC4)cc3)nc2n1-c1cccc(C(C)(C)O)n1` + Cc1cccc(N(C)C(=O)C2C(O)CCN2c2nc(C)cc(C(F)(F)F)c2C#N)c1, the viability, T/C was 111%.

Turning to `CCc1c2c(nc3ccc(O)cc13)-c1cc3c(c(=O)n1C2)COC(=O)[C@]3(O)CC` + Cc1cccc(N(C)C(=O)C2C(O)CCN2c2nc(C)cc(C(F)(F)F)c2C#N)c1, the viability, T/C is 55.1%.

Take `O=C(c1cc(Cc2n[nH]c(=O)c3ccccc23)ccc1F)N1CCN(C(=O)C2CC2)CC1` + Cc1cccc(N(C)C(=O)C2C(O)CCN2c2nc(C)cc(C(F)(F)F)c2C#N)c1: the viability, T/C was 85.4%.

Regarding `O=c1[nH]cc(F)c(=O)[nH]1` + Cc1cccc(N(C)C(=O)C2C(O)CCN2c2nc(C)cc(C(F)(F)F)c2C#N)c1, the viability, T/C was 101%.

Still in this assay, the particulars now being: second compound 1 µM; first compound 0.1 µM; active compounds read low.
Regarding `C=CCn1c(=O)c2cnc(Nc3ccc(N4CCN(C)CC4)cc3)nc2n1-c1cccc(C(C)(C)O)n1` + Cc1cccc(N(C)C(=O)C2C(O)CCN2c2nc(C)cc(C(F)(F)F)c2C#N)c1, the viability, T/C was 99.5%.

Regarding `CCc1c2c(nc3ccc(O)cc13)-c1cc3c(c(=O)n1C2)COC(=O)[C@]3(O)CC` + Cc1cccc(N(C)C(=O)C2C(O)CCN2c2nc(C)cc(C(F)(F)F)c2C#N)c1, the viability, T/C was 60.9%.

Turning to `O=C(c1cc(Cc2n[nH]c(=O)c3ccccc23)ccc1F)N1CCN(C(=O)C2CC2)CC1` + Cc1cccc(N(C)C(=O)C2C(O)CCN2c2nc(C)cc(C(F)(F)F)c2C#N)c1, the viability, T/C was 97.8%.

In the case of `O=c1[nH]cc(F)c(=O)[nH]1` + Cc1cccc(N(C)C(=O)C2C(O)CCN2c2nc(C)cc(C(F)(F)F)c2C#N)c1, the viability, T/C is 88.6%.

The same assay, now with this note: second compound 1 µM; first compound 0.316 µM; active compounds read low.
Regarding `C=CCn1c(=O)c2cnc(Nc3ccc(N4CCN(C)CC4)cc3)nc2n1-c1cccc(C(C)(C)O)n1` + Cc1cccc(N(C)C(=O)C2C(O)CCN2c2nc(C)cc(C(F)(F)F)c2C#N)c1, the viability, T/C was 122%.

As for `CCc1c2c(nc3ccc(O)cc13)-c1cc3c(c(=O)n1C2)COC(=O)[C@]3(O)CC` + Cc1cccc(N(C)C(=O)C2C(O)CCN2c2nc(C)cc(C(F)(F)F)c2C#N)c1, the viability, T/C is 59.6%.

Take `O=C(c1cc(Cc2n[nH]c(=O)c3ccccc23)ccc1F)N1CCN(C(=O)C2CC2)CC1` + Cc1cccc(N(C)C(=O)C2C(O)CCN2c2nc(C)cc(C(F)(F)F)c2C#N)c1: the viability, T/C was 96.9%.

`O=c1[nH]cc(F)c(=O)[nH]1` + Cc1cccc(N(C)C(=O)C2C(O)CCN2c2nc(C)cc(C(F)(F)F)c2C#N)c1: the viability, T/C was 107%.

The assay is the same for the next values; noted with them: second compound 1 µM; first compound 1 µM; active compounds read low.
On to `C=CCn1c(=O)c2cnc(Nc3ccc(N4CCN(C)CC4)cc3)nc2n1-c1cccc(C(C)(C)O)n1` + Cc1cccc(N(C)C(=O)C2C(O)CCN2c2nc(C)cc(C(F)(F)F)c2C#N)c1, for which the viability, T/C is 86%.

Consider `CCc1c2c(nc3ccc(O)cc13)-c1cc3c(c(=O)n1C2)COC(=O)[C@]3(O)CC` + Cc1cccc(N(C)C(=O)C2C(O)CCN2c2nc(C)cc(C(F)(F)F)c2C#N)c1, for which the viability, T/C is 44.6%.

Regarding `O=C(c1cc(Cc2n[nH]c(=O)c3ccccc23)ccc1F)N1CCN(C(=O)C2CC2)CC1` + Cc1cccc(N(C)C(=O)C2C(O)CCN2c2nc(C)cc(C(F)(F)F)c2C#N)c1, the viability, T/C is 97.8%.

`O=c1[nH]cc(F)c(=O)[nH]1` + Cc1cccc(N(C)C(=O)C2C(O)CCN2c2nc(C)cc(C(F)(F)F)c2C#N)c1: the viability, T/C was 110%.

Staying with this assay, now noted: second compound 1 µM; first compound 3.16 µM; active compounds read low.
In the case of `O=C(c1cc(Cc2n[nH]c(=O)c3ccccc23)ccc1F)N1CCN(C(=O)C2CC2)CC1` + Cc1cccc(N(C)C(=O)C2C(O)CCN2c2nc(C)cc(C(F)(F)F)c2C#N)c1, the viability, T/C was 84.1%.

With `O=c1[nH]cc(F)c(=O)[nH]1` + Cc1cccc(N(C)C(=O)C2C(O)CCN2c2nc(C)cc(C(F)(F)F)c2C#N)c1, the viability, T/C was 113%.

Still in this assay, the particulars now being: second compound 1 µM; first compound 10 µM; active compounds read low.
With `O=C(c1cc(Cc2n[nH]c(=O)c3ccccc23)ccc1F)N1CCN(C(=O)C2CC2)CC1` + Cc1cccc(N(C)C(=O)C2C(O)CCN2c2nc(C)cc(C(F)(F)F)c2C#N)c1, the viability, T/C is 77.6%.

On to `O=c1[nH]cc(F)c(=O)[nH]1` + Cc1cccc(N(C)C(=O)C2C(O)CCN2c2nc(C)cc(C(F)(F)F)c2C#N)c1, for which the viability, T/C is 96.5%.

The same assay, now with this note: second compound 3.16 µM; first compound 0.00316 µM; active compounds read low.
With `C=CCn1c(=O)c2cnc(Nc3ccc(N4CCN(C)CC4)cc3)nc2n1-c1cccc(C(C)(C)O)n1` + Cc1cccc(N(C)C(=O)C2C(O)CCN2c2nc(C)cc(C(F)(F)F)c2C#N)c1, the viability, T/C was 103%.

As to `CCc1c2c(nc3ccc(O)cc13)-c1cc3c(c(=O)n1C2)COC(=O)[C@]3(O)CC` + Cc1cccc(N(C)C(=O)C2C(O)CCN2c2nc(C)cc(C(F)(F)F)c2C#N)c1, the viability, T/C is 67.5%.

Still in this assay, the particulars now being: second compound 3.16 µM; first compound 0.01 µM; active compounds read low.
Take `C=CCn1c(=O)c2cnc(Nc3ccc(N4CCN(C)CC4)cc3)nc2n1-c1cccc(C(C)(C)O)n1` + Cc1cccc(N(C)C(=O)C2C(O)CCN2c2nc(C)cc(C(F)(F)F)c2C#N)c1: the viability, T/C is 105%.

Consider `CCc1c2c(nc3ccc(O)cc13)-c1cc3c(c(=O)n1C2)COC(=O)[C@]3(O)CC` + Cc1cccc(N(C)C(=O)C2C(O)CCN2c2nc(C)cc(C(F)(F)F)c2C#N)c1, for which the viability, T/C was 60.9%.

Still in this assay, the particulars now being: second compound 3.16 µM; first compound 0.0316 µM; active compounds read low.
Consider `C=CCn1c(=O)c2cnc(Nc3ccc(N4CCN(C)CC4)cc3)nc2n1-c1cccc(C(C)(C)O)n1` + Cc1cccc(N(C)C(=O)C2C(O)CCN2c2nc(C)cc(C(F)(F)F)c2C#N)c1, for which the viability, T/C is 104%.

Turning to `CCc1c2c(nc3ccc(O)cc13)-c1cc3c(c(=O)n1C2)COC(=O)[C@]3(O)CC` + Cc1cccc(N(C)C(=O)C2C(O)CCN2c2nc(C)cc(C(F)(F)F)c2C#N)c1, the viability, T/C is 50.3%.

What is called viability, T/C is the result in the treated group divided by that in the control group, in per cent.

Values taken from PubChem BioAssay AID1963837 (Molecular Pharmacology Branch, DTP, NCI, 2024).
